Reference: ChEMBL document CHEMBL5143695, “Benzobis(imidazole) derivatives as STAT3 signal inhibitors with antitumor activity” (Bioorg Med Chem, 2022)
pIC50: −log10 of the molar value. Active and inactive are the calls of the source. The rule behind the calls is not given here.

What was measured:
[1] = tested on: ECa-109 cell line; assay: Induction of apoptosis in human EC109 cells assessed as viable cells at 20 uM incubated for 48 hrs by Annexin V/PI staining based flow cytometry method (reference value: 91.7%); type: functional; details: read-out: Activity
[2] = tested on: ECa-109 cell line; assay: Induction of apoptosis in human EC109 cells assessed as viable cells at 10 uM incubated for 48 hrs by Annexin V/PI staining based flow cytometry method (reference value: 91.7%); type: functional; details: read-out: Activity
[3] = tested on: ECa-109 cell line; assay: Induction of apoptosis in human EC109 cells assessed as early apoptotic cells at 10 uM incubated for 48 hrs by Annexin V/PI staining based flow cytometry method (reference value: 1.36%); type: functional
[4] = target: Signal transducer and activator of transcription 3 (Homo sapiens) (UniProt P40763); assay: Binding affinity to STAT3 (unknown origin) expressed in Escherichia coli BL21 (DE3) assessed as thermal stability by measuring STAT3 accumulation at 55 to 80 degree C at 100 uM incubated for 30 mins by thermal shift assay
[5] = tested on: ECa-109 cell line; assay: Induction of cell cycle arrest in human EC109 cells assessed as accumulation of cells at G0/G1 phase incubated for 24 hrs by flow cytometric analysis (reference value: 49.86%); type: functional
[6] = tested on: ECa-109 cell line; assay: Antitumor activity against human EC109 cells assessed as reduction in cell viability incubated for 72 hrs by MTT assay; type: functional, cell-based; details: ECa-109, 72 h
[7] = tested on: ECa-109 cell line; assay: Induction of apoptosis in human EC109 cells assessed as downregulation of cyclin D1 protein expression by Western blotting analysis; type: functional, cell-based; details: dose 2.5-20 µM, DDE = dose-dependent effect
[8] = tested on: HepG2; assay: Induction of apoptosis in human HepG2 cells assessed as viable cells at 20 uM incubated for 48 hrs by Annexin V/PI staining based flow cytometry method (reference value: 92.5%); type: functional; details: read-out: Activity
[9] = tested on: ECa-109 cell line; assay: Induction of apoptosis in human EC109 cells assessed as late apoptotic cells at 10 uM incubated for 48 hrs by Annexin V/PI staining based flow cytometry method (reference value: 6.17%); type: functional
[10] = Inhibition of IL-6/JAK/STAT3 signalling pathway in HEK-blue IL-6 cells incubated for 16 hrs by SEAP reporter gene based QUANTI- blue assay; type: cell-based; details: Homo sapiens, HEK-Blue IL-6, 16 h
[11] = target: Signal transducer and activator of transcription 3 (Homo sapiens) (UniProt P40763); assay: Inhibition of STAT3 phosphorylation at Y705 residue in human EC109 cells measured after 16 hrs by Western blotting analysis; type: cell-based; details: dose 2.5-20 µM, DDE = dose-dependent effect
[12] = target: Signal transducer and activator of transcription 3 (Homo sapiens) (UniProt P40763); assay: Inhibition of STAT3 dimerization in human HepG2 cells assessed as decrease in STAT3 dimer formation at 5 to 10 uM incubated for 24 hrs by SDS-PAGE based DSS crosslink assay; type: cell-based; details: dose 5-10 µM
[13] = tested on: ECa-109 cell line; assay: Induction of apoptosis in human EC109 cells assessed as late apoptotic cells at 20 uM incubated for 48 hrs by Annexin V/PI staining based flow cytometry method (reference value: 6.17%); type: functional
[14] = tested on: HepG2; assay: Induction of cell cycle arrest in human HepG2 cells assessed as decrease in cells at S phase incubated for 24 hrs by flow cytometric analysis (reference value: 23.01%); type: functional; set-up: scale not given: the % may be the effect or the level left
[15] = tested on: ECa-109 cell line; assay: Inhibition of cell migration in human EC109 cells incubated for 48 hrs by microscopic analysis based wound healing assay; type: functional; details: dose 5-10 µM, DDE = dose-dependent effect
[16] = tested on: HepG2; assay: Antitumor activity against human HepG2 cells assessed as reduction in cell viability incubated for 72 hrs by MTT assay; type: functional, cell-based; details: HepG2, 72 h
[17] = tested on: HepG2; assay: Inhibition of cell migration in human HepG2 cells incubated for 48 hrs by microscopic analysis based wound healing assay; type: functional; details: dose 5-10 µM, DDE = dose-dependent effect
[18] = tested on: ECa-109 cell line; assay: Induction of apoptosis in human EC109 cells assessed as necrotic cells at 5 uM incubated for 48 hrs by Annexin V/PI staining based flow cytometry method (reference value: 0.73%); type: functional
[19] = tested on: HepG2; assay: Induction of apoptosis in human HepG2 cells assessed as necrotic cells at 5 uM incubated for 48 hrs by Annexin V/PI staining based flow cytometry method (reference value: 0.57%); type: functional
[20] = tested on: HepG2; assay: Induction of apoptosis in human HepG2 cells assessed as early apoptotic cells at 5 uM incubated for 48 hrs by Annexin V/PI staining based flow cytometry method (reference value: 3.31%); type: functional
[21] = tested on: HepG2; assay: Induction of apoptosis in human HepG2 cells assessed as late apoptotic cells at 20 uM incubated for 48 hrs by Annexin V/PI staining based flow cytometry method (reference value: 3.64%); type: functional
[22] = tested on: HepG2; assay: Induction of apoptosis in human HepG2 cells assessed as viable cells at 10 uM incubated for 48 hrs by Annexin V/PI staining based flow cytometry method (reference value: 92.5%); type: functional; details: read-out: Activity
[23] = target: Signal transducer and activator of transcription 3 (Homo sapiens) (UniProt P40763); assay: Inhibition of IL-6 induced STAT3 phosphorylation at Tyr705 residue in human HepG2 cells preincubated for 16 hrs followed by IL-6 stimulation for 30 mins by Western blot analysis; type: cell-based; details: dose 2.5-20 µM, DDE = dose-dependent effect
[24] = tested on: HepG2; assay: Induction of apoptosis in human HepG2 cells assessed as necrotic cells at 20 uM incubated for 48 hrs by Annexin V/PI staining based flow cytometry method (reference value: 0.57%); type: functional
[25] = tested on: ECa-109 cell line; assay: Induction of apoptosis in human EC109 cells assessed as necrotic cells at 20 uM incubated for 48 hrs by Annexin V/PI staining based flow cytometry method (reference value: 0.73%); type: functional
[26] = tested on: HepG2; assay: Induction of apoptosis in human HepG2 cells assessed as necrotic cells at 10 uM incubated for 48 hrs by Annexin V/PI staining based flow cytometry method (reference value: 0.57%); type: functional
[27] = tested on: ECa-109 cell line; assay: Induction of cell cycle arrest in human EC109 cells assessed as downregulation of cyclin D1 protein expression by Western blotting analysis; type: functional, cell-based; details: dose 2.5-20 µM, DDE = dose-dependent effect
[28] = tested on: ECa-109 cell line; assay: Induction of apoptosis in human EC109 cells assessed as late apoptotic cells at 5 uM incubated for 48 hrs by Annexin V/PI staining based flow cytometry method (reference value: 6.17%); type: functional
[29] = tested on: HepG2; assay: Antitumor activity against human HepG2 cells xenografted in BALB/c athymic nude mouse assessed as tumor growth inhibition at 20 mg/kg, ip administered daily for 24 days relative to control; type: functional; details: HepG2, 576 h, time 24 day, read-out: TGI
[30] = tested on: HepG2; assay: Induction of apoptosis in human HepG2 cells assessed as late apoptotic cells at 10 uM incubated for 48 hrs by Annexin V/PI staining based flow cytometry method (reference value: 3.64%); type: functional
[31] = tested on: HepG2; assay: Induction of cell cycle arrest in human HepG2 cells assessed as accumulation of cells at G0/G1 phase incubated for 24 hrs by flow cytometric analysis (reference value: 66.65%); type: functional
[32] = tested on: HepG2; assay: Antitumor activity against human HepG2 cells xenografted in BALB/c athymic nude mouse assessed as decrease in STAT3 phosphorylation at Y705 residues at 20 to 40 mg/kg, ip administered daily for 24 days; type: functional, organism-based; details: dose 20-40 mg/kg, time 24.0 day
[33] = tested on: ECa-109 cell line; assay: Induction of apoptosis in human EC109 cells assessed as early apoptotic cells at 5 uM incubated for 48 hrs by Annexin V/PI staining based flow cytometry method (reference value: 1.36%); type: functional
[34] = tested on: HepG2; assay: Induction of apoptosis in human HepG2 cells assessed as downregulation of MCL-1 protein expression by Western blotting analysis; type: functional, cell-based; details: dose 2.5-20 µM, DDE = dose-dependent effect
[35] = tested on: HepG2; assay: Induction of cell cycle arrest in human HepG2 cells assessed as downregulation of cyclin D1 protein expression by Western blotting analysis; type: functional, cell-based; details: dose 2.5-20 µM, DDE = dose-dependent effect

Sequence of Signal transducer and activator of transcription 3 (Homo sapiens) (P40763 whole entry): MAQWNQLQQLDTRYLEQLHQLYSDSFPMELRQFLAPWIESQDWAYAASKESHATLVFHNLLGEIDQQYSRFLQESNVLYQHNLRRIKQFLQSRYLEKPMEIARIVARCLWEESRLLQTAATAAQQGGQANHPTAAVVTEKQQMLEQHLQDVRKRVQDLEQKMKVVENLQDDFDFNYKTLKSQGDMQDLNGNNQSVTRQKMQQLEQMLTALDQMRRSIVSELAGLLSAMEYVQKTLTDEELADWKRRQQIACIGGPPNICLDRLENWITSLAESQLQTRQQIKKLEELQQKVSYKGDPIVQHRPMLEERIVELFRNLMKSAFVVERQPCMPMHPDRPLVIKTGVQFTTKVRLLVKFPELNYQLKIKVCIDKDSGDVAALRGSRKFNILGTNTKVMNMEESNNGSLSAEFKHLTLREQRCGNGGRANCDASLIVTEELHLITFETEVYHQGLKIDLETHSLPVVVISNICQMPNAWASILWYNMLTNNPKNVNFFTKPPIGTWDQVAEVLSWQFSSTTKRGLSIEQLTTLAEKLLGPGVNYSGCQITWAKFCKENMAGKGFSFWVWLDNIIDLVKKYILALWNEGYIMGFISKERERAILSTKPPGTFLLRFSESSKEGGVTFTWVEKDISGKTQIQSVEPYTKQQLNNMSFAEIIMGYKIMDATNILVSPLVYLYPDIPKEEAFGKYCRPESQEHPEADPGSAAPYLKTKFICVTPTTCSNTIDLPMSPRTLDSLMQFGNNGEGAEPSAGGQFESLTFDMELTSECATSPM

Activity [4]: Active
pIC50 [10]: 5.58
inhibition [11]: Dde
inhibition [12]: Active
pIC50 [16]: 5.37
inhibition [23]: Dde
SMILES: CCCn1c(-c2cccc(OC)c2)nc2cc3nc(-c4cccc(OC)c4)n(CCC)c3cc21
viability at 20 µM [1]: 46.8%
viability at 10 µM [2]: 70.5%
Activity [3]: 11.2%
Activity [5]: 58.73%
pIC50 [6]: 5.44
Activity [7]: Dde
viability at 20 µM [8]: 17.3%
Activity [9]: 17.2%
Activity [13]: 31.4%
Activity [14]: 16.55%
inhibition [15]: Dde
inhibition [17]: Dde
Activity [18]: 0.87%
Activity [19]: 1.54%
Activity [20]: 8.44%
Activity [21]: 51.9%
viability at 10 µM [22]: 39.5%
Activity [24]: 0.91%
Activity [25]: 3.56%
Activity [26]: 1.49%
Activity [27]: Dde
Activity [28]: 11%
inhibition in vivo at 20 mg/kg [29]: 42.5%
Activity [30]: 39.4%
Activity [31]: 74.51%
Activity [32]: Active
Activity [33]: 2.27%
Activity [34]: Dde
Activity [35]: Dde
